Measured values as given in patent US20210345602A1, “MAMMAL CELL PRESERVING SOLUTION CONTAINING ACARBOSE OR STACHYOSE” (OTSUKA PHARMACEUTICAL FACTORY, INC., priority 2018, published 2021).

Assays:
Format in all cases: cell-based
[1] = test system: bone marrow-derived human mesenchymal stem cells (hMSCs); assay: Viability of hMSCs after preservation in test isotonic liquid, trypan blue staining method; settings: for effect of suppressing the decrease in cell viability (screening of 93 saccharides): saccharide 87.5 mM in Lactec injection, compared with 88 mM trehalose or lactated Ringer's solution; for Cell viability (%) (Mean ± Standard deviation [SD]): n=3
Protocol: [1] 4×10^5 hMSCs were added to a 75-cm^2 flask and cultured at 37° C. in a 5% CO2 incubator in the presence of a medium. The state of the cells was observed under a microscope, and the cells were cultured until about 80% confluent. The medium was removed, and the hMSCs were rinsed with 8-mL PBS(−). The PBS(−) was removed, and 3.75-mL trypsin-EDTA (manufactured by Lonza) was added thereto, and the mixture was left standing at room temperature for 5 minutes. The hMSCs were observed under a microscope and slowly shaken until about 90% of them were exfoliated. 3.75 mL of medium was added thereto, to stop the trypsin reaction, and the hMSCs were collected by pipetting and transferred to a 50-mL centrifuge tube. […] Centrifugation was performed at 600×g and 22° C. for 5 minutes. The supernatant (medium) was removed, 1.5 mL of PBS(−) was added thereto, and the precipitate (hMSCs) was suspended. The number of cells was measured and adjusted with PBS(−) to 5×10^3 cells/mL, to prepare PBS containing hMSCs. [Method for Preserving hMSCs in Each Test Isotonic Liquid]
[1] 0.5 mL of the PBS containing hMSCs prepared was dispensed into each tube and centrifuged (at 600×g for 5 minutes). […] [Analysis of Viability of hMSCs by Trypan Blue Staining Method]
[1] […] Thereafter, 20 μL of a trypan blue staining solution (manufactured by Gibco) was mixed thereto. As a comparative control, 20 μL (equivalent to 1×10^4 cells) was collected from each PBS containing hMSCs before suspension in each test isotonic liquid (before preservation at 4° C.) and transferred to a tube. Thereafter, 20 μL of a trypan blue staining solution was mixed thereto. The total number of cells and the number of trypan blue-positive cells (dead cells) were measured under a microscope using OneCell Counter (manufactured by Bio Medical Science), to calculate the percentage of trypan blue-negative cells to the total number of cells, that is, the cell viability.

[2] = test system: bone marrow-derived human mesenchymal stem cells (hMSCs); assay: Cell aggregation level of hMSCs after preservation, phase contrast microscope; settings: hMSCs preserved at 25° C. for 48 hours; 88 mM acarbose in Lactec injection
Protocol: The hMSCs were preserved in each test isotonic liquid at 25° C. for 48 hours according to the method described in Example 1. Each test isotonic liquid containing the hMSCs after preservation was partially collected, and the presence or absence of cell aggregates in which three or more cells gather together was observed under a phase contrast microscope.

[3] = test system: rat hepatocytes; assay: Viability of rat hepatocytes after preservation in test isotonic liquid, trypan blue staining method; settings: rat hepatocytes preserved at 4° C. for 24 hours; n=6; Pre 70.8±3.32
Protocol: A stock tube of rat hepatocytes was taken out of a liquid nitrogen tank and thawed in a constant temperature bath at 37° C. […] Immediately after thawing, it was allowed to stand on ice and transferred to a 50-mL centrifuge tube. […] 25 mL of hepatocyte wash medium (which will be hereinafter referred to as “wash medium”) (manufactured by GIBCO) cooled with ice was added dropwise. […] Centrifugation was performed at 50×g and 4° C. for 3 minutes. […] The supernatant (wash medium) was removed, 6 mL of wash medium was added thereto, and the precipitate (rat hepatocytes) was suspended by pipetting 2 to 3 times. […] The number of cells was measured and adjusted with a wash medium to 5×10^3 cells/mL, to prepare a wash medium containing rat hepatocytes.
0.5 mL of the wash medium containing rat hepatocytes prepared was dispensed into each tube and centrifuged (at 50×g and 4° C. for 3 minutes). […] The supernatant (wash medium) was removed, and the precipitate (rat hepatocytes) was suspended in 0.5 mL of each test isotonic liquid and preserved at 4° C. for 24 hours.

[4] = test system: CD8-positive T cells; assay: Viability of expansion-cultured CD8-positive T cells after preservation, trypan blue staining method; settings: CD8-positive T cells preserved at 5° C. for 24 hours; n=3
Protocol: Cryopreserved CD8-positive T cells were thawed, then washed with a lymphocyte culture medium (LGM3, manufactured by Lonza), and incubated in the medium for about 1 hour (at 37° C. in 5% CO2). […] The medium containing the CD8-positive T cells was separated and centrifuged (at 300×g and room temperature for 10 minutes). […] The supernatant was removed, and the cells were suspended in TLY CULTURE kit 25 (manufactured by GC LYMPHOTEC Inc.) and the CD8-positive T cells were expansion-cultured under conditions of 37° C. and 5% CO2 for 7 days.
CD8-positive T cells (with a cell concentration of about 1.1×10^6 cells/5 mL) expansion-cultured for 7 days were washed with Lactec injection containing 88 mM trehalose, dispensed in Stemfull tube (manufactured by Sumitomo Bakelite Co., Ltd.), and then centrifuged (at 300×g and room temperature for 10 minutes). […] The supernatant was removed, and the precipitate (CD8-positive T cells) was suspended in 3 kinds of test isotonic liquids (Lactec injection containing 88 mM acarbose, Lactec injection containing 88 mM trehalose, and Lactec injection) and then preserved at 5° C. for 24 hours. […] After preservation for 24 hours, the cell viability was measured according to the method described in procedure [2] above.

[5] = hMSCs preserved at 4° C. for 3 days
[6] = hMSCs preserved at 4° C. for 2 days, Pre 94.7±2.1
[7] = hMSCs preserved at 4° C. for 3 days, α-glucosidase inhibitors 175 mM, Pre 98.5±0.6
[8] = hMSCs preserved at 5° C. for 4 days, Pre 93.7±2.0%

Compound	effect of suppressing the decrease in cell viability (screening of 93 saccharides) [1, 5]	Cell viability (%) (Mean ± Standard deviation [SD]) [1, 6]	further results
CC1(C)O[C@H](CO)[C@@H](CO)O1 [(−)-2,3-O-iso propylidene-D-threitol]	cell viability decreased	–	–
O=C[C@H](O)[C@@H](O)[C@@H](O)[C@H](O)C(=O)O [D-galacturonic acid]	cell viability decreased	–	–
O=C(O)[C@H](O)[C@@H](O)[C@H](O[C@@H]1O[C@H](CO)[C@H](O)[C@H](O)[C@H]1O)[C@H](O)CO [D-lactobionic acid]	cell viability decreased	–	–
N[C@@H]1C(O)O[C@H](CO)[C@@H](O)[C@@H]1O (stereo partly drawn) [D-mannosamine]	cell viability decreased	–	–
C[C@H]1O[C@H](O[C@H]2[C@H](O)[C@@H](O)[C@@H](O[C@H]3[C@H](O)[C@@H](O)C(O)O[C@@H]3CO)O[C@@H]2CO)[C@H](O)[C@@H](O)[C@@H]1N[C@H]1C=C(CO)[C@@H](O)[C@H](O)[C@H]1O (stereo partly shown) [acarbose]	higher effect of suppressing the decrease in cell viability than trehalose	cell viability increased	presence or absence of cell aggregates (three or more cells) [2]: almost no cell aggregates were observed; Cell viability (%) (Mean ± Standard deviation [SD]) [1, 7]: cell viability increased; Cell viability (%) (Mean ± Standard deviation [SD]) [3]: cell viability significantly increased; Cell viability (%) (Mean ± Standard deviation [SD]) 24 hours [4]: cell viability significantly increased
OC[C@H]1O[C@H](O[C@H]2[C@H](O)[C@@H](O)[C@@H](O[C@H]3[C@H](O)[C@@H](O)[C@@H](O[C@H]4[C@H](O)[C@@H](O)C(O)O[C@@H]4CO)O[C@@H]3CO)O[C@@H]2CO)[C@H](O)[C@@H](O)[C@@H]1O (stereo partly shown) [maltotetraose]	–	such an increase in cell viability was not observed	–
OCCN1C[C@H](O)[C@@H](O)[C@H](O)[C@H]1CO [miglitol]	–	–	Cell viability (%) (Mean ± Standard deviation [SD]) [1, 7]: cell viability was almost unchanged
OC[C@H]1O[C@@](CO)(OC[C@@]2(OC[C@@]3(O[C@H]4O[C@H](CO)[C@@H](O)[C@H](O)[C@H]4O)O[C@H](CO)[C@@H](O)[C@@H]3O)O[C@H](CO)[C@@H](O)[C@@H]2O)[C@@H](O)[C@@H]1O [nystose]	–	such an increase in cell viability was not observed	–
OC[C@H]1O[C@H](OC[C@H]2O[C@H](OC[C@H]3O[C@H](O[C@]4(CO)O[C@H](CO)[C@@H](O)[C@@H]4O)[C@H](O)[C@@H](O)[C@@H]3O)[C@H](O)[C@@H](O)[C@H]2O)[C@H](O)[C@@H](O)[C@H]1O [stachyose]	higher effect of suppressing the decrease in cell viability than trehalose	cell viability increased	Cell viability (%) (Mean ± Standard deviation [SD]) [1, 8]: cell viability significantly increased at any concentration
OC[C@H]1O[C@H](O[C@H]2O[C@H](CO)[C@@H](O)[C@H](O)[C@H]2O)[C@H](O)[C@@H](O)[C@@H]1O [trehalose]	–	–	Cell viability (%) (Mean ± Standard deviation [SD]) [1, 8]: cell viability increased; Cell viability (%) (Mean ± Standard deviation [SD]) 24 hours [4]: cell viability increased
OCC(CO)N[C@H]1C[C@](O)(CO)[C@@H](O)[C@H](O)[C@H]1O [voglibose]	–	–	Cell viability (%) (Mean ± Standard deviation [SD]) [1, 7]: cell viability was almost unchanged
